Test results: PubChem BioAssay AID2060490 (Molecular Pharmacology Branch, DTP, NCI, 2025)
Blank lines part the entries; values can stand above or below the compound they belong to.

Test system: 885512-296-R-J2-PDC complex spheroid viability
Assay: Anticancer human tumor 885512-296-R-J2-PDC patient-derived breast carcinoma cell line growth inhibition [GQUAD]
Details: for IC50: curve of first compound; for viability, T/C: stronger effect = lower value
How it was run: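 Multi-cell-type spheroids of tumor cells with HUVEC and mesenchymal stem cells, treated with drug combinations. Concentrations descend in half-log steps from near clinical Cmax, or from 10 microM where Cmax is unknown; viability read-out.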

[1] = second compound 0.0316 µM, first compound 0.0316 µM
[2] = second compound 0.0316 µM, first compound 0.1 µM
[3] = second compound 0.0316 µM, first compound 0.316 µM
[4] = second compound 0.0316 µM, first compound 1 µM
[5] = second compound 0.0316 µM, first compound 3.16 µM
[6] = second compound 0.0316 µM, first compound 10 µM
[7] = second compound 0.1 µM, first compound 0.0316 µM
[8] = second compound 0.1 µM, first compound 0.1 µM
[9] = second compound 0.1 µM, first compound 0.316 µM
[10] = second compound 0.1 µM, first compound 1 µM
[11] = second compound 0.1 µM, first compound 3.16 µM
[12] = second compound 0.1 µM, first compound 10 µM
[13] = second compound 0.316 µM, first compound 0.0316 µM
[14] = second compound 0.316 µM, first compound 0.1 µM
[15] = second compound 0.316 µM, first compound 0.316 µM
[16] = second compound 0.316 µM, first compound 1 µM
[17] = second compound 0.316 µM, first compound 3.16 µM
[18] = second compound 0.316 µM, first compound 10 µM
[19] = second compound 1 µM, first compound 0.0316 µM
[20] = second compound 1 µM, first compound 0.1 µM
[21] = second compound 1 µM, first compound 0.316 µM
[22] = second compound 1 µM, first compound 1 µM
[23] = second compound 1 µM, first compound 3.16 µM
[24] = second compound 1 µM, first compound 10 µM
[25] = second compound 3.16 µM, first compound 0.0316 µM
[26] = second compound 3.16 µM, first compound 0.1 µM
[27] = second compound 3.16 µM, first compound 0.316 µM
[28] = second compound 3.16 µM, first compound 1 µM
[29] = second compound 3.16 µM, first compound 3.16 µM
[30] = second compound 3.16 µM, first compound 10 µM
[31] = second compound 10 µM, first compound 0.0316 µM
[32] = second compound 10 µM, first compound 0.1 µM
[33] = second compound 10 µM, first compound 0.316 µM
[34] = second compound 10 µM, first compound 1 µM
[35] = second compound 10 µM, first compound 3.16 µM
[36] = second compound 10 µM, first compound 10 µM
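Note: spheroids exposed to the compounds for one week.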
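Throughout, for viability, T/C: percent of tumor spheroid viability relative to DMSO vehicle control wells.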

Structure (SMILES): O=C(NO)c1cnc(N2CCN(S(=O)(=O)c3ccc4ccccc4c3)CC2)nc1 + Cc1[nH]c2ccc(F)cc2c1-c1nc2c3cccnc3c3ncccc3c2[nH]1
IC50 (second compound 0.0316 µM): < 31.6 nM
IC50 (second compound 0.1 µM): < 31.6 nM
IC50 (second compound 0.316 µM): < 31.6 nM
IC50 (second compound 1 µM): < 31.6 nM
IC50 (second compound 3.16 µM): < 31.6 nM
IC50 (second compound 10 µM): < 31.6 nM
viability, T/C [1]: 7.49%
viability, T/C [2]: 2.85%
viability, T/C [3]: 3.25%
viability, T/C [4]: 3.35%
viability, T/C [5]: 2.95%
viability, T/C [6]: 3.28%
viability, T/C [7]: 6.66%
viability, T/C [8]: 3.49%
viability, T/C [9]: 2.89%
viability, T/C [10]: 3.93%
viability, T/C [11]: 2.97%
viability, T/C [12]: 4.1%
viability, T/C [13]: 7.12%
viability, T/C [14]: 4.32%
viability, T/C [15]: 3.29%
viability, T/C [16]: 3.62%
viability, T/C [17]: 3.66%
viability, T/C [18]: 4.67%
viability, T/C [19]: 6.46%
viability, T/C [20]: 4.49%
viability, T/C [21]: 3.76%
viability, T/C [22]: 5.02%
viability, T/C [23]: 5.46%
viability, T/C [24]: 3.77%
viability, T/C [25]: 2.35%
viability, T/C [26]: 2.1%
viability, T/C [27]: 2.47%
viability, T/C [28]: 2.68%
viability, T/C [29]: 1.7%
viability, T/C [30]: 2.56%
viability, T/C [31]: 1.59%
viability, T/C [32]: 2.99%
viability, T/C [33]: 1.66%
viability, T/C [34]: 1.46%
viability, T/C [35]: 1.54%
viability, T/C [36]: 2.58%

IC50 (second compound 0.0316 µM): < 31.6 nM
IC50 (second compound 0.1 µM): < 31.6 nM
IC50 (second compound 0.316 µM): < 31.6 nM
IC50 (second compound 1 µM): < 31.6 nM
IC50 (second compound 3.16 µM): < 31.6 nM
IC50 (second compound 10 µM): < 31.6 nM
Structure (SMILES): Nc1ccn(C2OC(CO)C(O)C2(F)F)c(=O)n1 (centres undefined) + Cc1cnc(CNC(=O)c2c(=O)c3ccc(N4CCCN(C)CC4)nc3n3c2sc2ccccc23)cn1
viability, T/C [1]: 11.4%
viability, T/C [2]: 3.66%
viability, T/C [3]: 4.41%
viability, T/C [4]: 3.92%
viability, T/C [5]: 3.56%
viability, T/C [6]: 4.33%
viability, T/C [7]: 8.53%
viability, T/C [8]: 4.24%
viability, T/C [9]: 3.88%
viability, T/C [10]: 5.21%
viability, T/C [11]: 4.05%
viability, T/C [12]: 3.9%
viability, T/C [13]: 8.35%
viability, T/C [14]: 8.14%
viability, T/C [15]: 5.18%
viability, T/C [16]: 2.76%
viability, T/C [17]: 5.29%
viability, T/C [18]: 4.05%
viability, T/C [19]: 9.41%
viability, T/C [20]: 7.02%
viability, T/C [21]: 3.55%
viability, T/C [22]: 3.31%
viability, T/C [23]: 4.27%
viability, T/C [24]: 3.59%
viability, T/C [25]: 4.08%
viability, T/C [26]: 0.41%
viability, T/C [27]: 0.15%
viability, T/C [28]: 0.1%
viability, T/C [29]: 0.12%
viability, T/C [30]: 0.14%
viability, T/C [31]: 0.09%
viability, T/C [32]: 0.15%
viability, T/C [33]: 0.14%
viability, T/C [34]: 0.11%
viability, T/C [35]: 0.15%
viability, T/C [36]: 0.16%
